Reference: paper PMC4588393 (EBioMedicine, 2015)
Structures can show the parent of a compound that is named as a salt. Bridge positions count the residues as written; N and C are the ends. Square brackets hold non-standard residues; d marks the D form. Peptide text beside a SMILES is read from it. * marks the point of attachment. X1 = CC[C@H](C)CCCCC(=O)*; Dab = NCC[C@H](N)C(=O)O

Key:
S. Typhimurium 14028 = assay type: cell-based, Salmonella enterica Typhimurium
[1] = system: TIVAR + S. Typhimurium 14028; set-up: species or system BALB/c mice; details: in vivo
[2] = in vivo; cited from earlier work
[3] = system: TIVAR − S. Typhimurium var. 5 (04)-9639; set-up: species or system BALB/c mice; details: in vivo

Compound | effect of pH and media composition on efficacy of antibiotic (S. Typhimurium 14028) | resistance linked to growth in LPM pH 5.5 medium (MIC ratio of LPM pH 5.5/pH 7.0 to MHB pH 5.5/pH 7.2) (S. Typhimurium 14028) [fold] | further results
CO/N=C(\C(=O)N[C@@H]1C(=O)N2C(C(=O)O)=C(CSC(=O)c3ccco3)CS[C@H]12)c1csc(N)n1 [Ceftiofur, ceftiofur] | unaffected |  | 
O=C(N[C@H](CO)[C@H](O)c1ccc([N+](=O)[O-])cc1)C(Cl)Cl [Chloramphenicol, chloramphenicol] | unaffected |  | 
O=C(O)c1cn(C2CC2)c2cc(N3CCNCC3)c(F)cc2c1=O [Ciprofloxacin, ciprofloxacin] |  |  | mouse survival post-infection [1]: at least 10 days
CC[C@H](C)CCCCC(=O)N[C@@H](CCN)C(=O)N[C@H](C(=O)N[C@@H](CCN)C(=O)N[C@H]1CCNC(=O)[C@H]([C@@H](C)O)NC(=O)[C@H](CCN)NC(=O)[C@H](CCN)NC(=O)[C@H](CC(C)C)NC(=O)[C@@H](CC(C)C)NC(=O)[C@H](CCN)NC1=O)[C@@H](C)O [Colistin sulfate, colistin sulfate] (X1-[Dab]T[Dab][Dab][Dab][dL]L[Dab][Dab]T; lactam 4-C (inferred); N-terminus assumed) |  | 256 | 
CC[C@H](C)CCCCC(=O)N[C@@H](CCN)C(=O)N[C@H](C(=O)N[C@@H](CCN)C(=O)N[C@H]1CCNC(=O)[C@H]([C@@H](C)O)NC(=O)[C@H](CCN)NC(=O)[C@H](CCN)NC(=O)[C@H](CC(C)C)NC(=O)[C@@H](Cc2ccccc2)NC(=O)[C@H](CCN)NC1=O)[C@@H](C)O [Polymyxin B, polymyxin B] (X1-[Dab]T[Dab][Dab][Dab][dF]L[Dab][Dab]T; lactam 4-C (inferred); N-terminus assumed) |  | 64 | circulating PMB levels [2]: 0.5 to 2.5 mg/L; mouse survival post-infection [3]: at least 10 days; time within which all treated mice died ([1]; mouse): ≤ 7 days
CN(C)[C@@H]1C(O)=C(C(N)=O)C(=O)[C@@]2(O)C(O)=C3C(=O)c4c(O)cccc4[C@@](C)(O)[C@H]3C[C@@H]12 [Tetracycline, tetracycline] | unaffected |  | 
COc1cc(Cc2cnc(N)nc2N)cc(OC)c1OC [Trimethoprim, trimethoprim] |  | 4 | 
